Test results published in the supplement of paper PMC10307832.

How the values were obtained:
Experiment in all cases: relative viability (nuclei count vs DMSO), 5 days (fraction); higher = more cells survive
Cabozantinib + AZD7762 = compound: COc1cc2nccc(Oc3ccc(NC(=O)C4(C(=O)Nc5ccc(F)cc5)CC4)cc3)c2cc1OC [Cabozantinib] + NC(=O)Nc1cc(-c2cccc(F)c2)sc1C(=O)N[C@H]1CCCNC1 [AZD7762] (partner 0.2 µM)
How it was run: (§1)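 Nuclei were stained with Hoechst during a one-step fixation (final 0.05% Triton X-100, 1% formaldehyde, 1 ug/ml Hoechst) carried out 5 days after dosing, then counted on 4× images. The cells, lung cancer lines in 1536-well plates, had been dosed by pin tool the day after seeding with one drug alone or a fixed anchor-drug dose plus five library-drug doses (not always all listed) in √10 steps. Relative viability is the nuclei count in treated wells divided by that in vehicle wells, and each value is the median of duplicate plates.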

[1] = compound: COc1cc2nccc(Oc3ccc(NC(=O)C4(C(=O)Nc5ccc(F)cc5)CC4)cc3)c2cc1OC [Cabozantinib] + CCNC(=O)c1noc(-c2cc(C(C)C)c(O)cc2O)c1-c1ccc(CN2CCOCC2)cc1 [Luminespib] (partner 0.01 µM)
How it was run: as §1

Kobe2602 + Pemetrexed = compound: C1=CC(=CC=C1NC(=S)NNC2=C(C=C(C=C2[N+](=O)[O-])C(F)(F)F)[N+](=O)[O-])F [Kobe2602] + Nc1nc2[nH]cc(CCc3ccc(C(=O)N[C@@H](CCC(=O)O)C(=O)O)cc3)c2c(=O)[nH]1 [Pemetrexed] (partner 0.2 µM)
How it was run: as §1

Kobe2602 + Trametinib = compound: C1=CC(=CC=C1NC(=S)NNC2=C(C=C(C=C2[N+](=O)[O-])C(F)(F)F)[N+](=O)[O-])F [Kobe2602] + CC(=O)Nc1cccc(-n2c(=O)n(C3CC3)c(=O)c3c(Nc4ccc(I)cc4F)n(C)c(=O)c(C)c32)c1 [Trametinib] (partner 0.02 µM)
How it was run: as §1

Cell Line	relative viability (Cabozantinib + AZD7762; first compound 0.02 µM)	relative viability (Cabozantinib + AZD7762; first compound 0.06325 µM)	relative viability (Cabozantinib + AZD7762; first compound 0.2 µM)	relative viability (Cabozantinib + AZD7762; first compound 0.6325 µM)	relative viability (Cabozantinib + AZD7762; first compound 2 µM)	relative viability ([1]; first compound 0.02 µM)	relative viability ([1]; first compound 0.06325 µM)	relative viability ([1]; first compound 0.2 µM)	relative viability ([1]; first compound 0.6325 µM)	relative viability ([1]; first compound 2 µM)	relative viability (Kobe2602 + Pemetrexed; first compound 0.2 µM)	relative viability (Kobe2602 + Pemetrexed; first compound 0.6325 µM)	relative viability (Kobe2602 + Pemetrexed; first compound 2 µM)	relative viability (Kobe2602 + Pemetrexed; first compound 6.325 µM)	relative viability (Kobe2602 + Pemetrexed; first compound 20 µM)	relative viability (Kobe2602 + Trametinib; first compound 0.2 µM)	relative viability (Kobe2602 + Trametinib; first compound 0.6325 µM)	relative viability (Kobe2602 + Trametinib; first compound 2 µM)	relative viability (Kobe2602 + Trametinib; first compound 6.325 µM)	relative viability (Kobe2602 + Trametinib; first compound 20 µM)
HOP-62	0.629	0.798	0.633	0.441	0.428	1.03	1	0.902	0.881	0.838	0.43	0.336	0.312	0.323	0.316	0.446	0.39	0.355	0.415	0.415
NCI-H838	1	0.74	0.908	0.93	0.866	0.369	0.342	0.3	0.259	0.34	0.257	0.251	0.261	0.246	0.232	0.516	0.566	0.49	0.536	0.466
LK-2	–	0.659	0.426	0.434	0.408	–	0.176	–	0.198	0.196	0.259	0.188	0.279	0.248	0.328	0.839	0.856	0.744	0.631	0.852
BEN	0.624	0.891	0.746	0.773	0.59	0.3	0.414	0.326	0.352	0.257	0.736	0.803	0.724	0.846	0.98	1.01	1.16	1.17	1.06	1.14
NCI-H23	–	0.312	0.248	0.261	0.241	–	0.218	0.199	0.229	0.205	0.653	0.8	0.82	0.584	0.742	0.428	0.49	0.359	0.385	0.444
ChaGo-K-1	0.927	0.943	0.868	0.872	0.857	0.638	0.757	0.737	0.765	0.447	0.27	0.26	0.267	0.267	0.266	0.883	0.884	0.912	0.769	0.855
NCI-H1944	0.492	0.552	0.598	0.55	0.69	0.739	0.818	0.754	0.719	0.762	0.632	0.658	0.738	0.626	0.62	0.418	0.409	0.404	0.442	0.423
NCI-H1792	–	1.05	0.684	0.506	0.335	–	0.404	0.501	0.334	0.325	0.679	0.964	0.714	0.887	0.814	0.445	0.446	0.401	0.564	0.366
NCI-H2085	1.08	1.06	0.766	0.768	0.727	0.472	0.498	0.464	0.467	0.432	0.944	0.882	0.959	0.904	0.901	0.614	0.516	0.491	0.409	0.514
LC-2-ad	0.766	0.98	0.79	0.902	0.866	–	1.1	1.03	0.914	0.956	0.292	0.296	0.285	0.275	0.264	0.931	0.895	0.849	0.936	0.89
201T	0.624	0.736	0.591	0.675	0.695	1.12	1.08	1.04	1.06	1.03	0.353	0.366	0.341	0.379	0.288	0.711	0.715	0.741	0.771	0.677
NCI-H1793	0.413	0.625	–	0.579	0.17	0.591	0.168	0.144	0.202	0.155	0.732	1.04	0.781	0.903	0.875	0.437	0.459	0.449	0.394	0.399
NCI-H2347	0.748	0.889	0.668	0.378	0.444	0.411	0.661	0.778	–	0.515	0.432	0.467	0.427	0.443	0.431	0.291	0.251	0.336	0.304	0.326
LXF-289	1.15	1.07	1.13	1.09	1.06	0.683	0.764	0.689	0.715	0.662	0.871	0.896	0.88	0.861	0.896	0.665	0.658	0.663	0.691	0.62
EKVX	0.693	0.856	0.558	0.703	0.763	0.859	1.02	0.918	0.751	0.893	0.416	0.394	0.404	0.41	0.408	0.38	0.366	0.288	0.298	0.319
NCI-H650	0.959	1.24	0.938	1.04	0.982	–	0.784	0.952	0.751	0.724	0.816	1.04	0.867	1.05	0.889	0.943	0.961	1	0.993	0.845
NCI-H1734	0.522	0.655	0.563	0.575	0.544	0.186	0.206	0.22	0.203	0.186	0.445	0.419	0.422	0.418	0.398	0.618	0.77	0.664	0.711	0.695
LOU-NH91	0.637	0.862	0.703	0.752	0.768	0.363	0.358	–	0.385	0.271	0.351	0.361	0.379	0.391	0.392	0.763	0.793	0.739	0.793	0.821
NCI-H2170	0.871	0.937	0.779	0.864	1.01	0.729	0.952	0.587	0.857	0.849	0.293	0.26	0.242	0.295	0.263	0.982	0.918	0.921	0.878	0.922
NCI-H460	0.633	0.801	0.68	0.623	0.63	0.0282	0.0334	0.0334	0.0351	0.0448	–	0.0647	0.0722	0.0653	0.0677	–	0.198	0.183	0.166	0.111
EPLC-272H	0.237	0.339	0.195	0.207	0.209	0.418	0.282	0.14	0.476	0.256	0.353	0.35	0.301	0.318	0.279	0.263	0.288	0.304	0.278	0.299
A-427	0.757	0.806	0.788	0.772	0.683	1.23	1.15	1.03	0.912	0.857	0.993	1.08	0.963	0.956	0.902	0.804	0.745	0.793	0.739	0.742
